Laboratory results from patent publication US6812232B2, “Heterocycle substituted purine derivatives as potent antiproliferative agents” (AMR Technology, Inc., priority 2001, dated 2004).
“And” between values parts separate entries of the source, which are not always exact repeats. Equal entries are not always repeated.

How the values were obtained:
HeLa S-3 cells = experiment: Inhibition of cell growth (SRB), HeLa; type: cell-based, human; details: Table 2, 2 days of treatment, replicate experimental results
Method: D. Measuring the Inhibition of Cell Growth.
Growth inhibition (GI50) values were measured with HeLa S-3 cells selected for growth on plastic. […] One day later, a control plate was fixed by addition of TCA to 5%. After five rinses with tap water the plate was air dried and stored at 4° C. Test compounds were added to the remaining plates at 10-fold dilutions between 0.01 and 100 μM. Two days later all plates were fixed as described above. Cells were then stained by the addition of 100 […] of 0.4% sulforhodamine B (SRB) in 1% acetic acid for 30 min at 4° C. Wells were then quickly rinsed 5× with acetic acid (1%) and allowed to air dry. The SRB was then solubilized by the addition of 100 μl per well of unbuffered 10 mM Tris base. Dye was quantified by measuring absorbance at 490 nm on a Molecular Devices kinetic microplate reader. Growth at each inhibitor concentration relative to the untreated control was calculated according to the following equation: percent growth=100×(T−To)/(C−To), where T was the average optical density (OD) of the test wells after 2 days of treatment, To was the average OD of the wells in the control plate on day 0 and C was the average OD of untreated wells. Plots of percent growth versus inhibitor concentration were used to determine the GI50.

CyclinB/cdk1 = biological target: T1, CyclinB/cdk1 (Homo sapiens, UniProt P06493); experiment: CyclinB/cdk1 protein kinase assay (histone H1 phosphorylation); type: biochemical; details: Table 2; complexes isolated from HeLa cells, histone H1, 15 μM ATP; replicate experimental results; read-out: IC50 CyclinB/cdkl
T1 construct: Monoclonal antibody against cyclinB (GNS1) is added to the supernatant; endogenous in cells
T1 sequence (P06493 whole entry): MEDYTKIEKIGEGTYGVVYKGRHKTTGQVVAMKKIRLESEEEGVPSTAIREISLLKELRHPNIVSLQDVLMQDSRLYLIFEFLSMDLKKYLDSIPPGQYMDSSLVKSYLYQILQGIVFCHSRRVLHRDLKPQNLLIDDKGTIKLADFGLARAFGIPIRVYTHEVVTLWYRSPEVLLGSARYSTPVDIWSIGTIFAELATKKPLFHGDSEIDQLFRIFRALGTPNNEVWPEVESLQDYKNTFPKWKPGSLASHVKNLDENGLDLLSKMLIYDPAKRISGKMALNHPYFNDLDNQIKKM
T1 sequence (P14635 whole entry partner): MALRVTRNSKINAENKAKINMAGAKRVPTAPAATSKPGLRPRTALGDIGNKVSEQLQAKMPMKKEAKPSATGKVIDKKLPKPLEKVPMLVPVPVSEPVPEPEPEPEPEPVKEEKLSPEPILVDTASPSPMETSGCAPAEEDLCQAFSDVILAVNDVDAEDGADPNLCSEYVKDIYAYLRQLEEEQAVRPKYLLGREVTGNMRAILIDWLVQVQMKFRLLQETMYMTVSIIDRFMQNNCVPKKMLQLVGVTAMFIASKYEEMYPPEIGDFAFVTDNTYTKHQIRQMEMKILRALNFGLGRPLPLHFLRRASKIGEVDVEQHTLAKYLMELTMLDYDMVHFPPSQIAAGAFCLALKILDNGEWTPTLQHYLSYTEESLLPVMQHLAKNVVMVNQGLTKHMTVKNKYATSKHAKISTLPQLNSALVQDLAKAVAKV
Method: HeLa cells are blocked at the G1/S border by culturing in the presence of 2 mM thymidine for 20 h. The cells are then rinsed 3× in phosphate buffered saline and resuspended in regular medium. After 4 h of culture, the mitotic blocker, nocodazole is added to a final concentration of 75 ng/ml. […] The lysate is then clarified by centrifugation at 10,000×g for 10 min. The supernatant is collected and diluted 1:5 with Lysis Buffer. Monoclonal antibody against cyclinB (GNS1) is added to the supernatant to a final concentration of 5 μg/ml and shaken at 4° C. for 2 h. The immune complexes are then collected by the addition of 200 μl of protein agarose beads for 1 h. The beads are washed 4× in lysis buffer and 1× in kinase assay buffer.
Duplicate assays were performed at each concentration.

SMILES | GI50 (HeLa S-3 cells) | melting point | further results
CC(C)n1cnc2c(NCc3cccc(-c4ccsc4)c3)nc(N[C@H]3CC[C@H](N)CC3)nc21 [Compound 131] | 2000 nM | 211 to 216 °C | GI50 (HeLa S-3 cells; Homo sapiens, HeLa S3, 48 h): 3000 nM
CC(=O)N[C@H]1CC[C@H](Nc2nc(NCc3ccc(-c4cccc(F)c4)nc3)c3ncn(C(C)C)c3n2)CC1 [Compound 188] |  | 199 to 230 °C | 
CC[C@H](CO)Nc1nc(NCc2ccc(-c3cccc([N+](=O)[O-])c3)cc2)c2ncn(C(C)C)c2n1 [Compound 48] |  |  | IC50 (CyclinB/cdk1): > 10000 nM
CC(C)n1cnc2c(NCc3ccc(-c4ccccc4)cn3)nc(N[C@H]3CC[C@H](N)CC3)nc21 [Compound 229] |  |  | GI50 (HeLa S-3 cells; Homo sapiens, HeLa S3, 48 h): 400 nM
COC(=O)NC1CCC(Nc2nc(NCc3ccc(-c4ccccc4)cc3)c3ncn(C(C)C)c3n2)CC1 (centres unmarked) [Compound 259] | 300 nM and 400 nM and 700 nM |  | 
CC(=O)NCCNc1nc(NCc2ccc(-c3ccccc3)cc2)c2ncn(C(C)C)c2n1 [Compound 208] | 4000 nM and 3000 nM |  | 
CC(=O)N[C@H]1CC[C@H](Nc2nc(NCc3cccc(-c4ccsc4)c3)c3ncn(C(C)C)c3n2)CC1 [Compound 132] | 3000 nM | 209 to 211 °C | GI50 (HeLa S-3 cells; Homo sapiens, HeLa S3, 48 h): 4000 nM
CC(C)n1cnc2c(NCc3ccc(-c4ccccc4)cc3)nc(NC3CCC(NC(=O)C4CC4)CC3)nc21 (centres unmarked) [Compound 261] | 300 nM |  | 
CC(C)n1cnc2c(NCc3ccc(-c4ccccc4)cc3)nc(N[C@H]3CC[C@H](NC(=O)OC(C)(C)C)CC3)nc21 [Compound 133] | > 10000 nM |  | 
CC(=O)NC1CCC(Nc2nc(NCc3ccc(-c4cccc(C)c4)cc3)c3ncn(C(C)C)c3n2)CC1 (centres unmarked) [Compound 178] | 400 nM and 200 nM |  | 
COc1cccc(-c2ccc(CNc3nc(NC4CCC(NC(C)=O)CC4)nc4c3ncn4C(C)C)cc2)c1 (centres unmarked) [Compound 180] | 400 nM and 300 nM |  | 
CC(C)n1cnc2c(NCc3ccc(-c4ccsc4)cc3)nc(N[C@H]3CC[C@H](NC(=O)OC(C)(C)C)CC3)nc21 [Compound 130] | > 10000 nM |  | 
CC(=O)N[C@H]1CC[C@H](Nc2nc(NCc3ccc(-c4ccco4)nc3)c3ncn(C(C)C)c3n2)CC1 [Compound 206] |  | 216 to 218 °C | 
